Measurements: ChEMBL document CHEMBL4825762, “Identification, Synthesis, and Characterization of a Major Circulating Human Metabolite of TRPV4 Antagonist GSK2798745” (ACS Med Chem Lett, 2021)
The source made the active and inactive calls. The rule behind the calls is not given here.

Assays:
[1] = Chromatographic hydrophobicity index, log D of the compound; type: physicochemical
[2] = Permeability of the compound; type: ADME; settings: not told; read-out: permeability
Cytochrome P450 3A4 = Cytochrome P450 3A4 (Homo sapiens, UniProt P08684); assay: Inhibition of CYP3A4 (unknown origin) at <= 10 uM; type: ADME
[3] = target: Transient receptor potential cation channel subfamily V member 1 (Homo sapiens) (UniProt Q8NER1); assay: Antagonist activity at human TRPV1 at <= 30 uM; settings: dose microM <=30
[4] = target: T1, Short transient receptor potential channel 3 (Homo sapiens) (UniProt Q13507); assay: Antagonist activity at human TRPC3 at <= 30 uM; settings: dose microM <=30
T1 sequence (whole entry): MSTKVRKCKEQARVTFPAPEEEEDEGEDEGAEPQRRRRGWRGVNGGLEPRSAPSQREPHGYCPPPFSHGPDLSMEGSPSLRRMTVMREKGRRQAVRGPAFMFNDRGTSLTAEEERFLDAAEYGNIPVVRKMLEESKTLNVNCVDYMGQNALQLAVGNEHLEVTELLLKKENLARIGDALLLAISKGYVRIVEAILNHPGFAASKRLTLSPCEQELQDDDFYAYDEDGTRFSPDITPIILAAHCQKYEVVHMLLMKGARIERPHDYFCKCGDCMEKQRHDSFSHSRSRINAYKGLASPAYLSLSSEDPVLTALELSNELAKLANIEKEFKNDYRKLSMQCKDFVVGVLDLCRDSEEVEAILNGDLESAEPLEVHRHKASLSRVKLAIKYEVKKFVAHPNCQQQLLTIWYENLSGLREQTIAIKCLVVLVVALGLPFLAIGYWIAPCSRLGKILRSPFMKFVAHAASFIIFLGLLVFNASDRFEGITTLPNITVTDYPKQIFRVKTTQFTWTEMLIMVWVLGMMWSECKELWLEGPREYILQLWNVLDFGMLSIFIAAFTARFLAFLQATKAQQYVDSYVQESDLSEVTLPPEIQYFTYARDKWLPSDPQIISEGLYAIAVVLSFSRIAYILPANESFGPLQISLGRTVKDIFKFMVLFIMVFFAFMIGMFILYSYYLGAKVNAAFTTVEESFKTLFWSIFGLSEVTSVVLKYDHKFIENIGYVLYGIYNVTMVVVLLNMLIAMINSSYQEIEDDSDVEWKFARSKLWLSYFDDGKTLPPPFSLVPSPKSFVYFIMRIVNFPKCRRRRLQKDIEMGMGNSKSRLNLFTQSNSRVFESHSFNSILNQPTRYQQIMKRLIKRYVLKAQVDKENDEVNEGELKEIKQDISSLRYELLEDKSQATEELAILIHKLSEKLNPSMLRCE

[5] = target: T2, Short transient receptor potential channel 4 (Homo sapiens) (UniProt Q9UBN4); assay: Antagonist activity at human TRPC4 at <= 30 uM; settings: dose microM <=30
T2 sequence (whole entry): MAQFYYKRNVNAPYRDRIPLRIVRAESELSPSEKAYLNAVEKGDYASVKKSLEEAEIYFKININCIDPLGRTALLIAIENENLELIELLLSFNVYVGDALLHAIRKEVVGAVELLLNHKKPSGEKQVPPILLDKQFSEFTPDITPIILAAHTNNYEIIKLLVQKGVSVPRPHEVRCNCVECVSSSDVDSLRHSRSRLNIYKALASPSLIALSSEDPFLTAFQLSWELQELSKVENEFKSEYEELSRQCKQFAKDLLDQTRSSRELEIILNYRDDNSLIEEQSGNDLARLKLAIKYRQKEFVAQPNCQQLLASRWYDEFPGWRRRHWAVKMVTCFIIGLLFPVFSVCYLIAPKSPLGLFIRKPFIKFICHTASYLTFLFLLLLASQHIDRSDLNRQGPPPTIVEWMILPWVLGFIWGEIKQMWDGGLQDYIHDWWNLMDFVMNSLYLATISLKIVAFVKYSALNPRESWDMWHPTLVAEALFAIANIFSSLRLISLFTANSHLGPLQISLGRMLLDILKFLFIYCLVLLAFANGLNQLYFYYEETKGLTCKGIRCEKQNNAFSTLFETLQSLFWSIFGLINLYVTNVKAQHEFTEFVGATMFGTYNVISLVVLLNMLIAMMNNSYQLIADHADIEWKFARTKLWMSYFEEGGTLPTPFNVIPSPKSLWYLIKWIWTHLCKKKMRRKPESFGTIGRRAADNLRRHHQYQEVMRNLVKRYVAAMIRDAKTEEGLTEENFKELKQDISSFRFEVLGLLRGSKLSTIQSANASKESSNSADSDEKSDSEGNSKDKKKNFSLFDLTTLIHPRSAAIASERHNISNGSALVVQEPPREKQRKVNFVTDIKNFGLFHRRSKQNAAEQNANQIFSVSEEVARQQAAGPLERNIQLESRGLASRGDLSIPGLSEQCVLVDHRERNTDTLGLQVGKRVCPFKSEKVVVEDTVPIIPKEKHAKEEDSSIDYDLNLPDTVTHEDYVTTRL

[6] = target: Voltage-gated inwardly rectifying potassium channel KCNH2 (Homo sapiens, UniProt Q12809); assay: Inhibition of human ERG at <= 10 uM
[7] = target: Transient receptor potential cation channel subfamily V member 4 (Homo sapiens, UniProt Q9HBA0); assay: Antagonist activity at human TRPV4
[8] = target: T3, Short transient receptor potential channel 6 (Homo sapiens) (UniProt Q9Y210); assay: Antagonist activity at human TRPC6 at <= 30 uM; settings: dose microM <=30
T3 sequence (whole entry): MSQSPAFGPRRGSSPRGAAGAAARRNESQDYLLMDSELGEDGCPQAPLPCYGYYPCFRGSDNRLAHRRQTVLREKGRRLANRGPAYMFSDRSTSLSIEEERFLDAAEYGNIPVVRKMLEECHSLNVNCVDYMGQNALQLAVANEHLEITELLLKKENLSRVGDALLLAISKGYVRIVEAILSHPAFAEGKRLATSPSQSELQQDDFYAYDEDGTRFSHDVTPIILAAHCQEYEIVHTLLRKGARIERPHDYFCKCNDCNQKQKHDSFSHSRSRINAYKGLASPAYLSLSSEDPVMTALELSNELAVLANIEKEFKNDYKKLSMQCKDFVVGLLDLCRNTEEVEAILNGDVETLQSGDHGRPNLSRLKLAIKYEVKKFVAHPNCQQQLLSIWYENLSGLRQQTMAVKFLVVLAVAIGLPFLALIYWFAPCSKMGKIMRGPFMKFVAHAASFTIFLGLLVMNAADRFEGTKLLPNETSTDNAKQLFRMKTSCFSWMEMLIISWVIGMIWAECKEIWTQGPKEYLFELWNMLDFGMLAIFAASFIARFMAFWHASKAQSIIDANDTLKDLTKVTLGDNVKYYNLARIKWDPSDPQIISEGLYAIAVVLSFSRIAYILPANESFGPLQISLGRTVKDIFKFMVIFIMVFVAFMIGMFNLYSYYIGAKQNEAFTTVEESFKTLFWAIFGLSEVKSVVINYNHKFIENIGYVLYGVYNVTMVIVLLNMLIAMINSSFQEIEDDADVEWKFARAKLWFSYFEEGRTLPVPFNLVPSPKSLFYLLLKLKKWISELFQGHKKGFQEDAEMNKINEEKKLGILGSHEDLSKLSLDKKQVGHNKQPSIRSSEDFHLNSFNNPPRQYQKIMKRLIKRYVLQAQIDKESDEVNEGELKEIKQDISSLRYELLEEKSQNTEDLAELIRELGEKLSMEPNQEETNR

[9] = target: Transient receptor potential cation channel subfamily M member 4 (Homo sapiens) (UniProt Q8TD43); assay: Antagonist activity at human TRPM4 at <= 30 uM; settings: dose microM <=30
[10] = target: Transient receptor potential cation channel subfamily A member 1 (Homo sapiens) (UniProt O75762); assay: Antagonist activity at human TRPA1 at <= 30 uM; settings: dose microM <=30
[11] = target: Transient receptor potential cation channel subfamily M member 8 (Homo sapiens) (UniProt Q7Z2W7); assay: Antagonist activity at human TRPM8 at <= 30 uM; settings: dose microM <=30
[12] = target: Transient receptor potential cation channel subfamily M member 2 (Homo sapiens) (UniProt O94759); assay: Antagonist activity at human TRPM2 at <= 30 uM; settings: dose microM <=30
[13] = target: T4, Short transient receptor potential channel 5 (Homo sapiens) (UniProt Q9UL62); assay: Antagonist activity at human TRPC5 at <= 30 uM; settings: dose microM <=30
T4 sequence (whole entry): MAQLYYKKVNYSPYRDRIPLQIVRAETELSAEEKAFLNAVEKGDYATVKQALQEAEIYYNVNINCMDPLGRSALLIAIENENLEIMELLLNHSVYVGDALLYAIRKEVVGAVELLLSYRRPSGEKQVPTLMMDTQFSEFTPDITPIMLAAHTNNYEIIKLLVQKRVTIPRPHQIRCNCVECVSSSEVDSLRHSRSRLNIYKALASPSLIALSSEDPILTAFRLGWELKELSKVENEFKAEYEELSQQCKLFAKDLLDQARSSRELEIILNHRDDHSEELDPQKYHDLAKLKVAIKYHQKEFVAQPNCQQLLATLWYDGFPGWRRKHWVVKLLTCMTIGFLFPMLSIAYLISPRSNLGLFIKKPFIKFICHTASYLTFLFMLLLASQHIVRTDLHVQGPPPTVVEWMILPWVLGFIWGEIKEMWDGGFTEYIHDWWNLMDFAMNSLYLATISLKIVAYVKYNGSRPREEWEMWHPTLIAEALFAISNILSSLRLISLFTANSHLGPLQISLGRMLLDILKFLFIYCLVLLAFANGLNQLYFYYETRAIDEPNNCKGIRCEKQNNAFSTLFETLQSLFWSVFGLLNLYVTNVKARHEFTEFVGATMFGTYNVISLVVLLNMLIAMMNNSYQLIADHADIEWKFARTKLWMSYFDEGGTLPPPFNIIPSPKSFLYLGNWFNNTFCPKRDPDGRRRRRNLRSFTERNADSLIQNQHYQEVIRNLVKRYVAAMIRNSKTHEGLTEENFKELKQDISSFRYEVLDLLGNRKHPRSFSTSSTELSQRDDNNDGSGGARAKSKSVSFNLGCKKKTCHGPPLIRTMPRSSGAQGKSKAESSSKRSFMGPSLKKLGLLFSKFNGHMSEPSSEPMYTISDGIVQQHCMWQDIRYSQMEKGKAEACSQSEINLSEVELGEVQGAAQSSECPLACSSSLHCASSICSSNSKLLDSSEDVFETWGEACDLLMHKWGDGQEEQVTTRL

Transient receptor potential cation channel subfamily V member 4, sequence (Q9HBA0 whole entry): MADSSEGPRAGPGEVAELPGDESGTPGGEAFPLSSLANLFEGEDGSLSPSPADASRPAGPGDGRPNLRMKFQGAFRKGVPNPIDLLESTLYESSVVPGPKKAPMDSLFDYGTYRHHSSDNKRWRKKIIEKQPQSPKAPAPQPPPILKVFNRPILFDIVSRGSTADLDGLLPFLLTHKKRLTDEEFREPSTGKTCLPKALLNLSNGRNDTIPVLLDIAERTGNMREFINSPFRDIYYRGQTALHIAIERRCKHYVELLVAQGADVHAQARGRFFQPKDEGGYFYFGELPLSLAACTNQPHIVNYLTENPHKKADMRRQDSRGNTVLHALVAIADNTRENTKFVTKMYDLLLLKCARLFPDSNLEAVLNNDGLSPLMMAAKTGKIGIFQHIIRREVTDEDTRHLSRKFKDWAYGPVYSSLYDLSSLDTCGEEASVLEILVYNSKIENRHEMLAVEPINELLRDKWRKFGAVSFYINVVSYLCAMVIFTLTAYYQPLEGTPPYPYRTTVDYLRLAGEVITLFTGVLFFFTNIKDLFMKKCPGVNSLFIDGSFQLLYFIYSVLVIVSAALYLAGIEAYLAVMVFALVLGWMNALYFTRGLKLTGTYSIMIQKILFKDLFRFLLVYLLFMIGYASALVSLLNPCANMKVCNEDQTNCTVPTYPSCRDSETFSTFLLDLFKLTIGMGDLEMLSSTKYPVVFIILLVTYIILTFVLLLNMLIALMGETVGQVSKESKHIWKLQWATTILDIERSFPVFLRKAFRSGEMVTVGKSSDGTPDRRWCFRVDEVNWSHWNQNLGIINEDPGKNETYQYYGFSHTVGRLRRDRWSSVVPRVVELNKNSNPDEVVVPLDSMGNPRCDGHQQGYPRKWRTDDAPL
Transient receptor potential cation channel subfamily M member 4 (Homo sapiens), sequence (Q8TD43 whole entry): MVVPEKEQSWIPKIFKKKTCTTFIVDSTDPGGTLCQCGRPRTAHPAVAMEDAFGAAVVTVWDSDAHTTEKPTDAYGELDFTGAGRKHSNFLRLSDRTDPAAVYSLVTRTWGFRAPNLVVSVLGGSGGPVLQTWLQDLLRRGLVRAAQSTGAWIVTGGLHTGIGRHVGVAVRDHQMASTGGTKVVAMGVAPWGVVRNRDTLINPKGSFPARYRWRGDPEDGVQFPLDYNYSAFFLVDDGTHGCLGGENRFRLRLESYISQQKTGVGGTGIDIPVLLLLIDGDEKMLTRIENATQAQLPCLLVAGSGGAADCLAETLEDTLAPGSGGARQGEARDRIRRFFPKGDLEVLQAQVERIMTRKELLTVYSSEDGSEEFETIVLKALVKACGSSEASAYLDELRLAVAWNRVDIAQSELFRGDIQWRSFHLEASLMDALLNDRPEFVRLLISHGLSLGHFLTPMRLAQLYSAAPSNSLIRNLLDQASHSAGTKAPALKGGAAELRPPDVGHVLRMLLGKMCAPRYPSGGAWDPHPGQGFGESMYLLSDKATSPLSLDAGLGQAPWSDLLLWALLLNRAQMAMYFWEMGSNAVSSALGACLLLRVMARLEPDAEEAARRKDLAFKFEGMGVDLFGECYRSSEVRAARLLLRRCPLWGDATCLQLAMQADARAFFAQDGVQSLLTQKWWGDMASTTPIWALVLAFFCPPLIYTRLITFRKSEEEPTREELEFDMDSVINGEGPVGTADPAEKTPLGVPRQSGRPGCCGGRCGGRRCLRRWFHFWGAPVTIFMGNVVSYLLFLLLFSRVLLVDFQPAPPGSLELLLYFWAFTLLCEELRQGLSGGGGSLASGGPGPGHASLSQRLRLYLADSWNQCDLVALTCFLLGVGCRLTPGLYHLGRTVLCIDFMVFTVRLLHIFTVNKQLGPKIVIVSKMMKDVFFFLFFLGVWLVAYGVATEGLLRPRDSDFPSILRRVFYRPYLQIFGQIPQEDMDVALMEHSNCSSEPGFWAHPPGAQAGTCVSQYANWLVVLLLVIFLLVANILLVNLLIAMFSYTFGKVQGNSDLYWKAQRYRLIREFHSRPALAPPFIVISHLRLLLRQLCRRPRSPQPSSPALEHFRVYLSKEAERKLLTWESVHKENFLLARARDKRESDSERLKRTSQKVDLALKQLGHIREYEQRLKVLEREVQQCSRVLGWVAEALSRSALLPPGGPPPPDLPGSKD
Transient receptor potential cation channel subfamily A member 1 (Homo sapiens), sequence (O75762 whole entry): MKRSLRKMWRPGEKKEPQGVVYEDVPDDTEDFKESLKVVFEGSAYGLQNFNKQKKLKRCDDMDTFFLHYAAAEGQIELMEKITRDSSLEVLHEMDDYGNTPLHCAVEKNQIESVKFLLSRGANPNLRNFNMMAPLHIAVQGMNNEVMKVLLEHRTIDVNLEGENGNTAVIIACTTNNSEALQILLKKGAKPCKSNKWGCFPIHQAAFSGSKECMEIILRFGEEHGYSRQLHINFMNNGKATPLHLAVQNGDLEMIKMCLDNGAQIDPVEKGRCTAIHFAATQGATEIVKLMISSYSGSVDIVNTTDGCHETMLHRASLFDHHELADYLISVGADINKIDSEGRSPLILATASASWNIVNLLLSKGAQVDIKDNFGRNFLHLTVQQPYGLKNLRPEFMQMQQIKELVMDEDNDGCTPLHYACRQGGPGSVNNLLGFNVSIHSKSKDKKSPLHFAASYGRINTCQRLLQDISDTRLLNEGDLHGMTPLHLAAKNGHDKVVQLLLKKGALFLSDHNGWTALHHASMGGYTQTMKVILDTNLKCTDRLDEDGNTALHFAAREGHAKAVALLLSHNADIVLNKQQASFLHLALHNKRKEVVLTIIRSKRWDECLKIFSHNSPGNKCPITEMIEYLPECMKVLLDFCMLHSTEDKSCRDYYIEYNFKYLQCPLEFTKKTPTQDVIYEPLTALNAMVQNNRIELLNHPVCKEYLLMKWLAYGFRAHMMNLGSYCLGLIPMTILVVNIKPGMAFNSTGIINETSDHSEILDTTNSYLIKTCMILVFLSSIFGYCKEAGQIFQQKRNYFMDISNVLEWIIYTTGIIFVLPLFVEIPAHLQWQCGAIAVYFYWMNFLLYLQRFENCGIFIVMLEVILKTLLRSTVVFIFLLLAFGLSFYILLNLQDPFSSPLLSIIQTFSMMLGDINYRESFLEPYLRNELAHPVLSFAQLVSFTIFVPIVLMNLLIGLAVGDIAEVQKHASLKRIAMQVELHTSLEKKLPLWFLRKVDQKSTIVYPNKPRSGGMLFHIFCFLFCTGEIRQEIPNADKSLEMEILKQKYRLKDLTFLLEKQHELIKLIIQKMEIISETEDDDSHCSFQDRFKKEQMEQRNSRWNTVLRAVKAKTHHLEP
Transient receptor potential cation channel subfamily M member 8 (Homo sapiens), sequence (Q7Z2W7 whole entry, looked up): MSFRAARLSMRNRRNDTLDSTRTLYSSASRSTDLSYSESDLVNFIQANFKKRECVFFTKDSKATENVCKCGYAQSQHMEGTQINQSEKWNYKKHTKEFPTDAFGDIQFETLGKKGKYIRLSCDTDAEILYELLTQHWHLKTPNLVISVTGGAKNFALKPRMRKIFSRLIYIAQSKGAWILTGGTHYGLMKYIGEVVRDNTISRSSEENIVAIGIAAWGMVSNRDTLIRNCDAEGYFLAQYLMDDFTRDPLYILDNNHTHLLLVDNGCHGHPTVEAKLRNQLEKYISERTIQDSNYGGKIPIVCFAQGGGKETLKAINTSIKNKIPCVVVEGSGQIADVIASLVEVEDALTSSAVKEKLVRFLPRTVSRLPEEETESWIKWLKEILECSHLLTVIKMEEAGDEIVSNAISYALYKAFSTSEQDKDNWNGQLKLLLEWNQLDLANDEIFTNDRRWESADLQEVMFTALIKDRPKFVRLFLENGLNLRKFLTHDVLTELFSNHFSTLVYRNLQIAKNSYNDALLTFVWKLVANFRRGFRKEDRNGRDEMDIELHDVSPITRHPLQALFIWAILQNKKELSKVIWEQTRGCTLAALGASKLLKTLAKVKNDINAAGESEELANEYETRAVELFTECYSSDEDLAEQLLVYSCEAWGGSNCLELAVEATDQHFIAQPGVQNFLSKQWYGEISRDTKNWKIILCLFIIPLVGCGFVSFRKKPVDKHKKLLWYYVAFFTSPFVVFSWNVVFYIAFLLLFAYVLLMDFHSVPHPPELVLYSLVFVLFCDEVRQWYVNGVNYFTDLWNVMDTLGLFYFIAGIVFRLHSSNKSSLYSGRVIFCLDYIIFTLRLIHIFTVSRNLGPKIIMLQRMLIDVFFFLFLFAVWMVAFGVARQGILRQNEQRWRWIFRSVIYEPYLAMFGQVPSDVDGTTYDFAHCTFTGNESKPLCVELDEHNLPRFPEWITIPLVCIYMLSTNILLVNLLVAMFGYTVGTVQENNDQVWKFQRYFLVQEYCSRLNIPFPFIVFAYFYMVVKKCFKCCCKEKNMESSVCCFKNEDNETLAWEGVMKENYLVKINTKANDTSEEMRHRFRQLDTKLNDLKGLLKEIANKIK
Cytochrome P450 3A4, sequence (P08684 whole entry): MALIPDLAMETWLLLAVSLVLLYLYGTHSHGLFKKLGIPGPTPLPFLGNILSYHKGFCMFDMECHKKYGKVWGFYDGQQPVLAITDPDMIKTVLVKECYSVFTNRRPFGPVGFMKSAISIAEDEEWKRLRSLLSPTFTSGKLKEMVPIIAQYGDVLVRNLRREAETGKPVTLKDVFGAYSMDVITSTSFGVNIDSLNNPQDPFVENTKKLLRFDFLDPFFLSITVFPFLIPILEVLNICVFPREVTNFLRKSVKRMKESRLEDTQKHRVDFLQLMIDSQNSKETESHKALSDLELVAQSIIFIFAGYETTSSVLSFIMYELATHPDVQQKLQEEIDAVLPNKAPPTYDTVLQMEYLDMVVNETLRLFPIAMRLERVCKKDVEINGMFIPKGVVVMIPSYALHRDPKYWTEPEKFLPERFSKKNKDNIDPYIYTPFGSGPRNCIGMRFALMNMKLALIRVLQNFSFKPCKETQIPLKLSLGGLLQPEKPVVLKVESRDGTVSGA

chromatographic logD [1]	Papp [2]	inhibition (INH) (Cytochrome P450 3A4)	Activity [3]	Activity [4]	Activity [5]	IC50 [7]	Activity [8]	Activity [10]	Activity [11]	Activity [12]	Activity [13]	Structure (SMILES)	inhibition (INH) [6]	Activity [9]
2.6	32 nm/s	Not Active	inactive	inactive	inactive	0.056 µM	inactive	inactive	inactive	inactive	inactive	CC(C)(O)c1cnc(N2C[C@@]3(CC[C@@H](O)[C@](C)(Cn4cnc5ccc(C#N)cc54)C3)OC2=O)cn1	Not Active	inactive
4	385 nm/s	–	–	–	–	0.002 µM	–	–	–	–	–	CC(C)(O)c1cnc(N2C[C@@]3(CCC[C@](C)(Cn4cnc5ccc(C#N)cc54)C3)OC2=O)cn1 [GSK2798745]	–	–
